Data: US10208019B2, “GLP-1 receptor agonists and uses thereof” (Pfizer Inc., priority 2016, dated 2019)

Biological target: human GLP-1R (Homo sapiens, UniProt P43220, G168S)
Assay: CHO GLP-1R Clone H6—Assay 1: HTRF cAMP cell-based functional agonist assay (high GLP-1R density)
Settings: for EC50: read-out: Assay 1 EC50, CHO GLP-1R Clone H6, cAMP HTRF, geometric mean; for Emax: read-out: Assay 1 Emax (%), CHO GLP-1R Clone H6, relative to saturating concentration of full agonist GLP-1 (1 μM), arithmetic mean

Chain of human GLP-1R (P43220 24-463 G168S limits assumed): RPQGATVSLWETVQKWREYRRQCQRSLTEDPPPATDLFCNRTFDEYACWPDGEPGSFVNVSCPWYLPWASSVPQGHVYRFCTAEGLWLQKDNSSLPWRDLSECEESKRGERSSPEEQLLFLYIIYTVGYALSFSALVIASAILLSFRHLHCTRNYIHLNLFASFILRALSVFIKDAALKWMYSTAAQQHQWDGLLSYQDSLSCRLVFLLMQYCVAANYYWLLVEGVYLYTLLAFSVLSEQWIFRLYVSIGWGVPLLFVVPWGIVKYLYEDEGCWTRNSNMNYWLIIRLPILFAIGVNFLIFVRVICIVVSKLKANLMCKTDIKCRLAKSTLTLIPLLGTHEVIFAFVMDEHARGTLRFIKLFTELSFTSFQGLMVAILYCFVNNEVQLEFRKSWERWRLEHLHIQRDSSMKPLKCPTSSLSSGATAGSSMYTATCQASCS

| Compound | EC50 [nM] | Emax [%] |
| --- | --- | --- |
| CC(c1nncn1C)n1c(CN2CCC(c3cccc(OCc4ccc(Cl)cc4F)n3)CC2)nc2ccc(C(=O)O)cc21 (centres unmarked) [Example 11A-52, 2-[(4-{6-[(4-chloro-2-fluorobenzyl)oxy]pyridin-2-yl}piperidin-1-yl)methyl]-1-[1-(4-methyl-4H-1,2,4-triazol-3-yl)ethyl]-1H-benzimidazole-6-carboxylic acid] | 440 | 86 |
| Cn1cnnc1CCn1c(CN2CCC(c3cccc(OCc4ccc(Cl)cc4F)n3)CC2)nc2ccc(C(=O)O)cc21 [Example 11A-53, 2-[(4-{6-[(4-chloro-2-fluorobenzyl)oxy]pyridin-2-yl}piperidin-1-yl)methyl]-1-[2-(4-methyl-4H-1,2,4-triazol-3-yl)ethyl]-1H-benzimidazole-6-carboxylic acid] | 450 | 71 |
| CCN1CCC[C@@H]1Cn1c(CN2CCC(c3cccc(OCc4ccc(Cl)cc4F)n3)CC2)nc2ccc(C(=O)O)cc21 [Example 11A-54, 2-[(4-{6-[(4-chloro-2-fluorobenzyl)oxy]pyridin-2-yl}piperidin-1-yl)methyl]-1-{[(2R)-1-ethylpyrrolidin-2-yl]methyl}-1H-benzimidazole-6-carboxylic acid] | 500 | 69 |
| Cc1nc(Cn2c(CN3CCC(c4cccc(OCc5ccc(Cl)cc5F)n4)CC3)nc3ccc(C(=O)O)cc32)c(C)o1 [Example 11A-55, 2-[(4-{6-[(4-chloro-2-fluorobenzyl)oxy]pyridin-2-yl}piperidin-1-yl)methyl]-1-[(2,5-dimethyl-1,3-oxazol-4-yl)methyl]-1H-benzimidazole-6-carboxylic acid] | 520 | 80 |
| COC1CCN(CCn2c(CN3CCC(c4cccc(OCc5ccc(Cl)cc5F)n4)CC3)nc3ccc(C(=O)O)cc32)CC1 [Example 11A-56, 2-[(4-{6-[(4-chloro-2-fluorobenzyl)oxy]pyridin-2-yl}piperidin-1-yl)methyl]-1-[2-(4-methoxypiperidin-1-yl)ethyl]-1H-benzimidazole-6-carboxylic acid] | 1100 | 47 |

The next compounds have a lower EC50 than those just listed; values first:

| EC50 [nM] | Emax [%] | Compound |
| --- | --- | --- |
| 300 | 66 | COC[C@@H](C)n1c(CN2CCC(c3cccc(OCc4ccc(Cl)cc4F)n3)CC2)nc2ccc(C(=O)O)cc21 [Example 11A-46, 2-[(4-{6-[(4-chloro-2-fluorobenzyl)oxy]pyridin-2-yl}piperidin-1-yl]methyl]-1-[(2R)-1-methoxypropan-2-yl]-1H-benzimidazole-6-carboxylic acid] |
| 320 | 79 | Cc1cc(Cn2c(CN3CCC(c4cccc(OCc5ccc(Cl)cc5F)n4)CC3)nc3ccc(C(=O)O)cc32)on1 [Example 11A-47, 2-[(4-{6-[(4-chloro-2-fluorobenzyl)oxy]pyridin-2-yl}piperidin-1-yl]methyl]-1-[(3-methyl-1,2-oxazol-5-yl)methyl]-1H-benzimidazole-6-carboxylic acid] |
| 380 | 68 | O=C(O)c1ccc2nc(CN3CCC(c4cccc(OCc5ccc(Cl)cc5F)n4)CC3)n(CC3CCOCC3)c2c1 [Example 11A-49, 2-[(4-{6-[(4-chloro-2-fluorobenzyl)oxy]pyridin-2-yl}piperidin-1-yl)methyl]-1-(tetrahydro-2H-pyran-4-ylmethyl)-1H-benzimidazole-6-carboxylic acid] |
| 380 | 75 | O=C(O)c1ccc2nc(CN3CCC(c4cccc(OCc5ccc(Cl)cc5F)n4)CC3)n(CCN3CCOCC3)c2c1 [Example 11A-50, 2-[(4-{6-[(4-chloro-2-fluorobenzyl)oxy]pyridin-2-yl}piperidin-1-yl)methyl]-1-[2-(morpholin-4-yl)ethyl]-1H-benzimidazole-6-carboxylic acid] |
| 390 | 69 | O=C(O)c1ccc2nc(CN3CCC(c4cccc(OCc5ccc(Cl)cc5F)n4)CC3)n(CC3CC(F)(F)C3)c2c1 [Example 11A-51, 2-[(4-{6-[(4-chloro-2-fluorobenzyl)oxy]pyridin-2-yl}piperidin-1-yl)methyl]-1-[(3,3-difluorocyclobutyl)methyl]-1H-benzimidazole-6-carboxylic acid] |
